Assay results published in patent US9161944B2, “Method for preventing cancer metastasis” (INSERM (INSTITUT NATIONAL DE LA SANTE ET DE LA SANTE ET DE …, priority 2010, dated 2015).

Assays:
SK3/KCa2.3 channel = SK3/KCa2.3 channel (Homo sapiens, UniProt Q9UGI6); test: Whole-cell patch clamp on HEK293 cells expressing SK3; assay type: cell-based; set-up: expressed in transfected cells; host or cells: HEK293, lentiviral transduction, clonal selection
Method: The percentages of inhibition represent the ratio (SK3 current amplitude and chord conductance (in the presence of 10 μM JPH1701)/SK3 current amplitude in control experiments). Black bars show current at 0 mV and grey bars indicate the chord conductance. […] Columns, mean, bars, SEM, (5 cells for racemic mix and 4 cells for + and − forms).
MDA-MB-435s and HEK293 cells were transduced with lentiviral vector at multiplicities of infection (MOI) of 1 to 3 in the presence of polybrene (4 μg/ml, Sigma).
Experiments were performed with cells seeded into 35-mm Petri dishes at 3000 cells per cm2. All experiments were performed using the conventional whole-cell recording configuration of the patch-clamp technique as previously described. PCa solution was 7 and 6.4 respectively for MDA-MB-435s and HEK293-SK3/KCa2.3 cells.
Briefly, experiments were conducted using Axopatch 200B patch-clamp amplifier (Axon Instrument) and data, digitized with 1322-A Digidata converter (Axon Instrument), were stored on a computer using Clampex of pClamp 9.2 software (Axon Instru-ment). The patch-clamp data was analyzed using both Clampfit 9.2 and Origin 7.0 software (Microcal Inc., Northampton, Mass., USA).
The pipette solution for the whole-cell recordings contained (in mM): K-glutamate 125, KCl 20, MgCl2 1, Mg-ATP 1, HEPES 10, and pH was adjusted to 7.2 with KOH and various concentrations of CaCl2 and EGTA were added to obtain calculated pCa=7 (0.37 mM CaCl2 and 10 mM EGTA) or pCa=6.4 (0.7 mM CaCl2 and 1 mM EGTA).
We next developed HEK cells expressing SK3/KCa2.3 channel in order to test directly analogues on SK3 activity measured using patch-clamp technique (FIG. 8). […] The JPH1701-induced inhibition of SK3 current was analysed at 0 mV and the entire time course of the experiment is depicted in FIG. 8A.
Current activity has been measured in HEK 293 LvSK3 and in MDA-MB-435s cells. The percentages represent the inhibition of current and of conductance by compounds on SK3 channel in HEK 293 cells.

MDA-MB-435s-luc cells = test: Mammary fat pad (MFP)-model tumor; assay type: in vivo, NMRI nude mice; settings: 15 mg/kg i.v. three times a week
Method: FIG. 10. Anti-metastatic effect of JPH1701 on experimental metastasis model. Two millions of MDA-MB-435s-luc cells pre-treated for 24 hours with JPH1701 (1 μM) or vehicle were grafted in MFP of NMRI/Nude mice. Mice were treated three times a week with JPH1701 at 15 mg/kg in i.v. or with vehicle during all the experiments (14-15 weeks). The primary tumor was surgical removed when its volume attempted 500 mm3 (6-7 weeks post-graft). Mice were euthanized 7-8 weeks after surgical removed of the primary tumor. FIG. 10A-B) In vivo BLI of metastases from mice treated with vehicle (FIG. 10A) or with JPH1701 (FIG. 10B) before euthanasia. FIG. 10C) Number of tissue with metastases detected ex vivo by bioluminescence (including lymph nodes, lungs, rachis and bone legs) after euthanasia. FIG. 10D) Metastatic score of mice treated with vehicle or with JPH1701. Two parameters were used to assess the metastatic score of each mouse: (i) Number of tissue or organ with metastases detected ex vivo by BLI and (ii) BLI intensity (photon/min) of each metastasis. […] The score of each cohort (sum of individually score) represents the degree of metastatic development assessed in vivo by BLI.
Two millions of MDA-MB-435s-luc cells pre-treated for 24 hours with JPH1701 (1 μM) or vehicle were grafted in MFP of NMRI/Nude mice. […] Two weeks post-graft, primary tumors were measured, weekly, during 6 weeks in three dimensions with a caliper and tumor volume was calculated (black circles: vehicle, open circles: JPH1701). […] Two weeks post-graft, the number of cancer cells in the primary tumor was evaluated weekly during 6 weeks by BLI imaging (black circles: vehicle, open circles: JPH1701). […]
The growth of primary tumors was weekly evaluated by caliper measurement and by bioluminescence imaging (BLI). The tumor volume was calculated as length×width×depth and the primary tumor was surgical removed when its volume attempted 500 mm3 (6-7 weeks post graft). Mice were euthanized 8 weeks after tumor excision and metastases were detected ex vivo by bioluminescence imaging in lymph nodes, lungs, rachis, and bone legs. […]

MDA-MB-435s = test: Cytotoxicity / cell viability (MTT, tetrazolium salt reduction)

In the case of “hexadecyloxy-2-O-methyl-sn-glycerol-lactose [JPH1701]”, the “Effect on SK3 current amplitude at 0 mV” value (SK3/KCa2.3 channel; 10 μM, FIG. 9B, ranking SK3>SK1) is reported as “significantly reduced”, the “Reduction of the amplitude of the SK3 current at 0 mV” value (SK3/KCa2.3 channel; 10 μM, after 120 sec) is reported as “about 70%” and the “Time needed to reduce 50% of the amplitude of the current” value (SK3/KCa2.3 channel; 0.3, 1 and 10 μM, whatever the concentration) is reported as “approximately 40 sec”. The Conductance decreasing (SK3/KCa2.3 channel; HEK 293 LvSK3 cells) was 66.1 ± 1.5%, the “Inhibition of I at 0 mV” value (SK3/KCa2.3 channel; HEK 293 LvSK3 cells, 10 μM stated for JPH1701) was 70.1 ± 1.4% and the “Metastatic score versus vehicle (Rank Sum Test)” value (MDA-MB-435s-luc cells; 14-15 weeks, FIG. 10D) was “significantly different”. The “Number of cancer cells in the primary tumor (BLI) versus vehicle” value (MDA-MB-435s-luc cells; 6 weeks, FIG. 12B) was “did not highlighted any significant difference”, the “Time course of primary tumor volume versus vehicle” value (MDA-MB-435s-luc cells; over 6 weeks, FIG. 12A) was “no difference” and the Toxicity (MDA-MB-435s; Table 2, viability of MDA-MB-435s) was “No at 10 μM”. The “Effect on cell viability” value (MDA-MB-435s; at 10 nM to 1 μM, FIG. 6B) was “no effect on cell viability”, the “Effect on MDA-MB-435s proliferation” value (MDA-MB-435s; in vitro) was “no effect” and the IC50 (MDA-MB-435s; read-out: Cytotoxicity IC50, Table 1) was greater than 10 µM.
